Reference: US10435435B2, “Quinstatin compounds” (THE ARIZONA BOARD OF REGENTS ON BEHALF OF ARIZONA STATE …, priority 2015, dated 2019)
Like-named read-outs stand apart in the source and are kept apart here. Square brackets hold non-standard residues; d marks the D form. Peptide text beside a SMILES is read from it. * marks the point of attachment. Dolaproine = CO[C@@H]([C@@H]1CCCN1)[C@@H](C)C(=O)O; Dil = CC[C@H](C)[C@H](NC)[C@@H](CC(=O)O)OC; X1 = C[C@@H](N*)[C@@H](O)c1ccccc1; NMeV = CN[C@H](C(=O)O)C(C)C

Key:
[1] = test system: BXPC-3 (pancreas) cancer cell line; assay: NCI sulforhodamine B growth inhibition, BXPC-3; assay type: cell-based, human; settings: BXPC-3, 48 h
Description: (§1) Next, serial dilutions of the compounds were added.

[2] = test system: KM20L2 (colon) cancer cell line; assay: NCI sulforhodamine B growth inhibition, KM20L2; assay type: cell-based, human; settings: KM20L2, 48 h
Description: as §1

[3] = test system: NCI-H460 (lung) cancer cell line; assay: NCI sulforhodamine B growth inhibition, NCI-H460; assay type: cell-based, human; settings: NCI-H460, 48 h
Description: as §1

[4] = test system: DU-145 (prostate) cancer cell line; assay: NCI sulforhodamine B growth inhibition, DU-145; assay type: cell-based, human; settings: DU-145, 48 h
Description: as §1

[5] = test system: SF-268 (CNS) cancer cell line; assay: NCI sulforhodamine B growth inhibition, SF-268; assay type: cell-based, human; settings: SF-268, 48 h
Description: as §1

[6] = test system: MCF-7 (breast) cancer cell line; assay: NCI sulforhodamine B growth inhibition, MCF-7; assay type: cell-based, human; settings: MCF-7, 48 h
Description: as §1

Human Cancer Cell Lines = test system: Human Cancer Cell Lines
Description: Inhibition of human cancer cell growth was assessed using the National Cancer Institute's standard sulforhodamine B assay as previously described.^10 In summary, cells in a 5% fetal bovine serum/RPMI1640 medium were inoculated in 96-well plates and incubated for 24 hrs. Next, serial dilutions of the compounds were added. After 48 h, the plates were fixed with trichloroacetic acid, stained with sulforhodamine B, and read with an automated microplate reader.

[7] = bracketed value, read-out: GI50

Compound | GI50 [1] [ng/mL] | GI50 [1, 7] [nM] | GI50 [2] [ng/mL] | GI50 [2, 7] [nM] | GI50 [3] [ng/mL] | GI50 [3, 7] [nM] | GI50 [4] [ng/mL] | GI50 [4, 7] [nM] | GI50 [5] [ng/mL] | GI50 [5, 7] [nM] | GI50 [6] [ng/mL] | GI50 [6, 7] [nM] | increase in cancer cell growth inhibition as compared to auristatin AQ (Human Cancer Cell Lines; comparison with auristatin AQ) | inhibition level compared with dolastatin 10 (Human Cancer Cell Lines; in one of the experiments)
CC[C@H](C)[C@@H]([C@@H](CC(=O)N1CCC[C@H]1[C@H](OC)[C@@H](C)C(=O)N[C@H](C)[C@@H](O)c1ccccc1)OC)N(C)C(=O)[C@@H](NC(=O)[C@H](C(C)C)N(C)C)C(C)C [Auristatin E, auristatin E, reference compound] | >1 | > 1.37 | 0.36 | 0.492 | 0.39 | 0.533 | 0.31 | 0.424 | 0.36 | 0.492 | 0.17 | 0.232 |  | 
CC[C@H](C)[C@@H]([C@@H](CC(=O)N1CCC[C@H]1[C@H](OC)[C@@H](C)C(=O)N[C@H](C)[C@@H](O)c1ccccc1)OC)N(C)C(=O)[C@@H](NC(=O)[C@@H](NC)C(C)C)C(C)C [Desmethylauristatin E, desmethyl auristatin E, reference compound] (H-[NMeV]V[Dil][Dolaproine]-X1) | >1 | > 1.39 | 0.43 | 0.599 | 0.49 | 0.683 | 0.3 | 0.418 | 0.31 | 0.432 | 0.29 | 0.404 |  | 
CC[C@H](C)[C@@H]([C@@H](CC(=O)N1CCC[C@H]1[C@H](OC)[C@@H](C)C(=O)N[C@@H](Cc1ccccc1)c1nccs1)OC)N(C)C(=O)[C@@H](NC(=O)[C@H](C(C)C)N(C)C)C(C)C [Dolastatin 10, dolastatin 10, reference compound] | 0.04 | 0.051 | 0.008 | 0.01 | 0.18 | 0.229 | 0.0052 | 0.007 | 0.0043 | 0.006 | 0.0042 | 0.005 |  | 
CC[C@H](C)[C@@H]([C@@H](CC(=O)N1CCC[C@H]1[C@H](OC)[C@@H](C)C(=O)NCCc1ccc2ccccc2n1)OC)N(C)C(=O)[C@@H](NC(=O)[C@H](C(C)C)N(C)C)C(C)C [Quinstatin 2, 2-(1′-Dov-Val-Dil-Dap-2′-ethyl)-quinoline] | 9.3 | 12.3 | 0.33 | 0.438 | 5.1 | 6.78 | 0.31 | 0.412 | 0.23 | 0.306 | 0.31 | 0.412 | ten to one hundred times | 
CC[C@H](C)[C@@H]([C@@H](CC(=O)N1CCC[C@H]1[C@H](OC)[C@@H](C)C(=O)NCCc1cnc2ccccc2c1)OC)N(C)C(=O)[C@@H](NC(=O)[C@H](C(C)C)N(C)C)C(C)C [Quinstatin 3, 3-(1′-Dov-Val-Dil-Dap-2′-ethyl)-quinoline] | 21 | 27.9 | 0.4 | 0.53 | 31 | 41.2 | 0.2 | 0.26 | 0.29 | 0.38 | 0.23 | 0.31 |  | 
CC[C@H](C)[C@@H]([C@@H](CC(=O)N1CCC[C@H]1[C@H](OC)[C@@H](C)C(=O)NCCc1ccc2ncccc2c1)OC)N(C)C(=O)[C@@H](NC(=O)[C@H](C(C)C)N(C)C)C(C)C [Quinstatin 6, Dov-Val-Dil-Dap-2-(quinolin-6-yl)ethylamine] | 2 | 2.66 | 0.39 | 0.518 | 4.3 | 5.71 | 0.3 | 0.399 | 0.3 | 0.399 | 0.4 | 0.532 |  | 
CC[C@H](C)[C@@H]([C@@H](CC(=O)N1CCC[C@H]1[C@H](OC)[C@@H](C)C(=O)NCCc1ccc2cccnc2c1)OC)N(C)C(=O)[C@@H](NC(=O)[C@H](C(C)C)N(C)C)C(C)C [Quinstatin 7, 7-(1′-Dov-Val-Dil-Dap-2′-ethyl)-quinoline] | 3.1 | 4.12 | 0.041 | 0.054 | 11 | 14.6 | 0.03 | 0.04 | 0.024 | 0.032 | 0.03 | 0.039 |  | 
CC[C@H](C)[C@@H]([C@@H](CC(=O)N1CCC[C@H]1[C@H](OC)[C@@H](C)C(=O)NCCc1cccc2cccnc12)OC)N(C)C(=O)[C@@H](NC(=O)[C@H](C(C)C)N(C)C)C(C)C [Quinstatin 8, 8-(1′-Dov-Val-Dil-Dap-2′-ethyl)-quinoline] | 0.5 | 0.425 | 0.04 | 0.053 | 0.9 | 1.19 | 0.04 | 0.053 | 0.023 | 0.03 | 0.04 | 0.053 |  | at the dolastatin 10 level, but not consistently
